From patent publication US20170334899A1, “AMINO-SUBSTITUTED ISOTHIAZOLES” (Bayer Pharma Aktiengesellschaft, priority 2014, published 2017)

Tests used:
CDK2/CycE = target: T1, CDK2/CycE (Homo sapiens, UniProt P24941); assay: CDK2/CycE kinase assay (TR-FRET); assay type: biochemical; details: avg, read-out: CDK2 avg (IC50 [mol/l])
T1 construct: GST; purchased ProQinase GmbH (Freiburg, Germany); host or cells: insect cells (Sf9)
Text: CDK2/CycE -inhibitory activity of compounds of the present invention was quantified employing the CDK2/CycE TR-FRET assay as described in the following paragraphs.
Recombinant fusion proteins of GST and human CDK2 and of GST and human CycE, expressed in insect cells (Sf9) and purified by Glutathion-Sepharose affinity chromatography, were purchased from ProQinase GmbH (Freiburg, Germany). As substrate for the kinase reaction biotinylated peptide biotin-Ttds-YISPLKSPYKISEG (C-terminus in amid form) was used which can be purchased e.g. form the company JERINI peptide technologies (Berlin, Germany).
For the assay 50 nl of a 100fold concentrated solution of the test compound in DMSO was pipetted into a black low volume 384we11 microtiter plate (Greiner Bio-One, Frickenhausen, Germany), 2 μl of a solution of CDK2/CycE in aqueous assay buffer [50 mM Tris/HCl pH 8.0, 10 mM MgCl2, 1.0 mM dithiothreitol, 0.1 mM sodium ortho-vanadate, 0.01% (v/v) Nonidet-P40 (Sigma)] were added and the mixture was incubated for 15 min at 22° C. to allow pre-binding of the test compounds to the enzyme before the start of the kinase reaction. Then the kinase reaction was started by the addition of 3 μl of a solution of adenosine-tri-phosphate (ATP, 16.7 μM=>final conc. in the 5 μl assay volume is 10 μM) and substrate (1.25 μM=>final conc. in the 5 μl assay volume is 0.75 μM) in assay buffer and the resulting mixture was incubated for a reaction time of 25 min at 22° C. The concentration of CDK2/CycE was adjusted depending of the activity of the enzyme lot and was chosen appropriate to have the assay in the linear range, typical concentrations were in the range of 130 ng/ml. The reaction was stopped by the addition of 5 μl of a solution of TR-FRET detection reagents (0.2 μM streptavidine-XL665 [Cisbio Bioassays, Codolet, France] and 1 nM anti-RB(pSer807/pSer811)-antibody from BD Pharmingen [#558389] and 1.2 nM LANCE EU-W1024 labeled anti-mouse IgG antibody [Perkin-Elmer, product no. AD0077, as an alternative a Terbium-cryptate-labeled anti-mouse IgG antibody from Cisbio Bioassays can be used]) in an aqueous EDTA-solution (100 mM EDTA, 0.2% (w/v) bovine serum albumin in 100 mM HEPES/NaOH pH 7.0).
(§1) The resulting mixture was incubated 1 h at 22° C. to allow the formation of complex between the phosphorylated biotinylated peptide and the detection reagents. Subsequently the amount of phosphorylated substrate was evaluated by measurement of the resonance energy transfer from the Eu-chelate to the streptavidine-XL. Therefore, the fluorescence emissions at 620 nm and 665 nm after excitation at 350 nm was measured in a TR-FRET reader, e.g. a Rubystar (BMG Labtechnologies, Offenburg, Germany) or a Viewlux (Perkin-Elmer). The ratio of the emissions at 665 nm and at […] was taken as the measure for the amount of phosphorylated substrate. The data were normalised (enzyme reaction without inhibitor=0% inhibition, all other assay components but no enzyme=100% inhibition).

[1] = target: T2, catalytic domain of human Bub1 (amino acids 704-1085) (Homo sapiens, UniProt O43683); assay: Bub1 kinase assay (TR-FRET); assay type: biochemical; details: 10 μM ATP, avg, read-out: Bub1 avg (IC50 [mol/l])
T2 construct: catalytic domain of human Bub1 (amino acids 704-1085); His6 (N); made in house; host or cells: insect cells (Hi5)
T2 sequence (O43683 704-1085): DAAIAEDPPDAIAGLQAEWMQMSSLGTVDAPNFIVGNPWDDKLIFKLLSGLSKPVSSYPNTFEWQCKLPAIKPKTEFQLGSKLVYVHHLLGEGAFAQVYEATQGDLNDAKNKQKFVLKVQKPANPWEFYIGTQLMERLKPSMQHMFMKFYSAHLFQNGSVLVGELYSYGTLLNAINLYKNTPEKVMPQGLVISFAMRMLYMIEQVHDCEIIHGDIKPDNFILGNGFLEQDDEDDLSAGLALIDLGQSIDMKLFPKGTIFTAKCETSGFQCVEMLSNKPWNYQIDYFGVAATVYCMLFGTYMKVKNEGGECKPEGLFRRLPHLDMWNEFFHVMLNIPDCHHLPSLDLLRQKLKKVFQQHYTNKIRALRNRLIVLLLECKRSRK
Text: Bub1-inhibitory activity of compounds of the present invention was quantified employing the Bub1 TR-FRET assay as described in the following paragraphs.
N-terminally His6-tagged recombinant catalytic domain of human Bub1 (amino acids 704-1085), expressed in insect cells (Hi5) and purified by Ni-NTA affinity chromatography and subsequent size exclusion chromatography, was used as enzyme. As substrate for the kinase reaction the biotinylated peptide biotin-Ahx-VLLPKKSFAEPG (C-terminus in amid form) was used which can be purchased e.g. form the company Biosyntan (Berlin, Germany).
For the assay 50 nl of a 100fold concentrated solution of the test compound in DMSO was pipetted into a black low volume 384well microtiter plate (Greiner Bio-One, Frickenhausen, Germany), 2 μl of a solution of Bub1 in aqueous assay buffer [50 mM Tris/HCl pH 7.5, 10 mM magnesium chloride (MgCl2), 200 mM potassium chloride (KCl), 1.0 mM dithiothreitol (DTT), 0.1 mM sodium ortho-vanadate, 1% (v/v) glycerol, 0.01% (w/v) bovine serum albumine (BSA), 0.005% (v/v) Trition X-100 (Sigma), 1× Complete EDTA-free protease inhibitor mixture (Roche)] were added and the mixture was incubated for 15 min at 22° C. to allow pre-binding of the test compounds to the enzyme before the start of the kinase reaction. Then the kinase reaction was started by the addition of 3 μl of a solution of adenosine-tri-phosphate (ATP, 16.7 μM=>final conc. in the 5 μl assay volume is 10 μM) and substrate (1.67 μM=>final conc. in the 5 μl assay volume is 1 μM) in assay buffer and the resulting mixture was incubated for a reaction time of 60 min at 22° C. The concentration of Bub1 was adjusted depending of the activity of the enzyme lot and was chosen appropriate to have the assay in the linear range, typical concentrations were in the range of 200 ng/ml. The reaction was stopped by the addition of 5 μl of a solution of TR-FRET detection reagents (0.2 μM streptavidine-XL665 [Cisbio Bioassays, Codolet, France] and 1 nM anti-phosho-Serine antibody [Merck Millipore, cat. #35-001] and 0.4 nM LANCE EU-W1024 labeled anti-mouse IgG antibody [Perkin-Elmer, product no. AD0077, as an alternative a Terbium-cryptate-labeled anti-mouse IgG antibody from Cisbio Bioassays can be used]) in an aqueous EDTA-solution (50 mM EDTA, 0.2% (w/v) bovine serum albumin in 100 mM HEPES pH 7.5).
as §1, with “or Pherastar (both from BMG” for “(BMG”

| SMILES | IC50 (CDK2/CycE) [µM] | IC50 [1] [µM] |
| --- | --- | --- |
| Cc1nsc(Nc2cnc(C(F)(F)F)cn2)c1C(=O)Nc1ccc(C(=O)NC2CCN(CC(F)(F)F)CC2)cc1 [Example 165, 3-methyl-N-(4-{[1-(2,2,2-trifluoroethyl)piperidin-4-yl]carbamoyl}phenyl)-5-{[5-(trifluoromethyl)pyrazin-2-yl]amino}-1,2-thiazole-4-carboxamide] | > 20 | > 20 |
| Cc1nsc(Nc2cnc(C(F)(F)F)cn2)c1C(=O)Nc1ccc(OC[C@@H]2CCN(CCC(F)(F)F)C2)nc1 [Example 129, 3-Methyl-5-{[5-(trifluoromethyl)pyrazin-2-yl]amino}-N-(6-{[(3R)-1-(3,3,3-trifluoropropyl)pyrrolidin-3-yl]methoxy}pyridin-3-yl)-1,2-thiazole-4-carboxamide] | > 20 | > 20 |
| Cc1nsc(Nc2cnc(C(F)(F)F)cn2)c1C(=O)Nc1ccc(O[C@@H]2CCN(CC(F)F)C[C@@H]2F)nc1 [Example 137, N-(6-{[(3S,4R)-1-(2,2-difluoroethyl)-3-fluoropiperidin-4-yl]oxy}pyridin-3-yl)-3-methyl-5-{[5-(trifluoromethyl)pyrazin-2-yl]amino}-1,2-thiazole-4-carboxamide] | > 20 | > 20 |
| Cc1nsc(Nc2cnc(C(F)(F)F)cn2)c1C(=O)Nc1ccc(OC2CCN(C(C)C)CC2)nc1 [Example 160, N-{6-[(1-isopropylpiperidin-4-yl)oxy]pyridin-3-yl}-3-methyl-5-{[5-(trifluoromethyl)pyrazin-2-yl]amino}-1,2-thiazole-4-carboxamide] | > 20 | > 20 |
| CCCCN1CC[C@H](Oc2ccc(NC(=O)c3c(C)nsc3Nc3cnc(C(F)(F)F)cn3)cn2)[C@H](F)C1 [Example 148, N-(6-{[(3R,4S)-1-butyl-3-fluoropiperidin-4-yl]oxy}pyridin-3-yl)-3-methyl-5-{[5-(trifluoromethyl)pyrazin-2-yl]amino}-1,2-thiazole-4-carboxamide] | > 20 | > 20 |
| Cc1nsc(Nc2cnc(C(F)(F)F)cn2)c1C(=O)Nc1ccc(OC[C@H]2CCN(CC(F)(F)F)C2)nc1 (racemic) [Example 133, 3-Methyl-N-(6-{[(SR)-1-(2,2,2-trifluoroethyl)pyrrolidin-3-yl]methoxy}pyridin-3-yl)-5-{[5-(trifluoromethyl)pyrazin-2-yl]amino}-1,2-thiazole-4-carboxamide] | > 20 | > 20 |
| Cc1nsc(Nc2cnc(C(F)(F)F)cn2)c1C(=O)Nc1ccc(OC[C@H]2CCN(CCC(F)(F)F)C2)nc1 [Example 134, 3-Methyl-5-{[5-(trifluoromethyl)pyrazin-2-yl]amino}-N-(6-{[(3S)-1-(3,3,3-trifluoropropyl)pyrrolidin-3-yl]methoxy}pyridin-3-yl)-1,2-thiazole-4-carboxamide] | > 20 | > 20 |
| Cc1nsc(Nc2cnc(C(F)(F)F)cn2)c1C(=O)Nc1ccc(O[C@@H]2CCN(CC(F)(F)F)C[C@@H]2F)nc1 [Example 138, N-(6-{[(3S,4R)-3-fluoro-1-(2,2,2-trifluoroethyl)piperidin-4-yl]oxy}pyridin-3-yl)-3-methyl-5-{[5-(trifluoromethyl)pyrazin-2-yl]amino}-1,2-thiazole-4-carboxamide] | > 20 | > 20 |
| CCCN1CC[C@H](Oc2ccc(NC(=O)c3c(C)nsc3Nc3cnc(C(F)(F)F)cn3)cn2)[C@H](F)C1 [Example 147, N-(6-{[(3R,4S)-3-fluoro-1-propylpiperidin-4-yl]oxy}pyridin-3-yl)-3-methyl-5-{[5-(trifluoromethyl)pyrazin-2-yl]amino}-1,2-thiazole-4-carboxamide] | > 20 | > 20 |
| Cc1nsc(Nc2cnc(C(F)(F)F)cn2)c1C(=O)Nc1ccc(OC[C@@H]2CCN(CC(F)(F)F)C2)nc1 [Example 128, 3-Methyl-N-(6-{[(3R)-1-(2,2,2-trifluoroethyl)pyrrolidin-3-yl]methoxy}pyridin-3-yl)-5-{[5-(trifluoromethyl)pyrazin-2-yl]amino}-1,2-thiazole-4-carboxamide] | > 20 | > 20 |

More lines, now with the values ahead:

| IC50 (CDK2/CycE) [µM] | IC50 [1] [µM] | SMILES |
| --- | --- | --- |
| ≥ 20 | ≥ 20 | CNS(=O)(=O)c1ccc(NC(=O)c2c(C)nsc2Nc2cnc3ccccc3n2)cc1 [Example 111, 3-Methyl-N-[4-(methylsulfannoyl)phenyl]-5-(quinoxalin-2-ylamino)-1,2-thiazole-4-carboxamide] |
| ≥ 20 | 7.6 | Cc1nsc(Nc2cnc3ccccc3n2)c1C(=O)Nc1cccc(C(=O)N2CCNCC2)c1 [Example 101, 3-Methyl-N-[3-(piperazin-1-ylcarbonyl)phenyl]-5-(quinoxalin-2-ylamino)-1,2-thiazole-4-carboxamide] |
| > 20 | > 20 | CC(=O)Nc1cc(NC(=O)c2c(C)nsc2Nc2ccc(C#N)cn2)ccc1F [Example 152, N-(3-acetamido-4-fluorophenyl)-5-[(5-cyanopyridin-2-yl)amino]-3-methyl-1,2-thiazole-4-carboxamide] |
| ≥ 20 | ≥ 20 | Cc1nsc(Nc2cnc3ccccc3n2)c1C(=O)Nc1cccc(C(=O)N[C@H](C(=O)O)[C@@H](C)OC(C)(C)C)c1 [Example 104, O-tert-Butyl-N-[3-({[3-methyl-5-(quinoxalin-2-ylamino)-1,2-thiazol-4-yl]-carbonyl}amino)benzoyl]threonine] |
| ≥ 20 | 9 | COC(=O)CNC(=O)c1cccc(NC(=O)c2c(C)nsc2Nc2cnc3ccccc3n2)c1 [Example 100, Methyl N-[3-({[3-methyl-5-(quinoxalin-2-ylamino)-1,2-thiazol-4-yl]carbonyl}amino)-benzoyl]glycinate] |
